Data on twelve compounds can be found in US12083101B2, “Biaryl derivatives as YAP/TAZ-TEAD protein-protein interaction inhibitors” (Novartis AG, priority 2020, dated 2024).

Read-outs that look alike come from different tables or passages of the source.

Test [1] concerns NCI-H2052 Tet-On shYAP_2371 pLenti6 MCAT_Luc cells. Kind of test: Proliferation assay (resazurin), NCI-H2052. The class given is cell-based. The conditions noted are these: 72 hours incubation. Here is the method: (§1) This cell line was also transduced with a Tet-pLKO-puro-based construct mediating tetracycline-inducible expression of a short-hairpin directed against the 3′UTR of the YAP1 mRNA (5′-[…]-3′).
(§2) Stock solutions of compounds were prepared at a concentration of 10 mM in DMSO and stored at 4° C. Where necessary to afford a full dose-response curve, the stock solutions were pre-diluted in DMSO to 1'000-fold the desired reduced start concentration. On the day after cell seeding, eleven 2-fold serial dilutions of each compound were dispensed directly into the cell assay plates using a HP 300D non-contact Digital Dispenser (TECAN, Mannedorf, Switzerland). The final concentration of DMSO was normalized to 0.1% in all wells.
(§3) The functional effect of compounds on cell proliferation was assessed using NCI-H2052 Tet-On shYAP_2371 pLenti6 MCAT_Luc and MKN-45/Ubc-luc cells by quantifying the reducing capacity of live cells using the redox indicator dye resazurin. […] For data analysis, the assay background value determined in wells containing medium, but no cells, was subtracted from all data points. […] The effect of a particular test compound concentration on cell proliferation/viability was expressed as percentage of day 0-corrected fluorescence reading obtained for cells treated with vehicle only (DMSO, final concentration 0.1%), which was set as 100%, whereas the fluorescence reading for wells containing medium only, but no cells, was set as −100%. Compound concentrations leading to half-maximal growth inhibition (GI50) were determined using standard four parameter curve fitting.
In general terms: Alamar Blue is a resazurin reagent that responds to reducing activity.

The target of test [2] is Avi-humanTEAD4 217-434 / Cy5 labeled humanYAP 60-100 (Homo sapiens (Human), UniProt Q15561). Kind of test: TR-FRET YAP-TEAD4 in-vitro biochemical assay. The test is classed as binding. Particulars: 1 nM Avi-humanTEAD4 217-434, 20 nM Cy5-humanYAP 60-100, 1 h room temperature.
Chain of Avi-humanTEAD4 217-434 / Cy5 labeled humanYAP 60-100 (Q15561 217-434): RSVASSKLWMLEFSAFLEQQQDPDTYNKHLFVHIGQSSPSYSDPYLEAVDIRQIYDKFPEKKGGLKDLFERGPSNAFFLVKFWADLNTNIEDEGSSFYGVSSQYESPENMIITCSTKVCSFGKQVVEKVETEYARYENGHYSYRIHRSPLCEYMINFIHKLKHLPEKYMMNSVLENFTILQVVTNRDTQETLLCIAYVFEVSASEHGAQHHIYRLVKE
Test [3] concerns NCI-H2052 Tet-On shYAP_2371 pLenti6 MCAT_Luc cells (YAP-dependent transcription). Kind of test: YAP reporter gene activity assay (MCAT-luciferase), NCI-H2052. The class given is cell-based. The conditions noted are these: 24 hours incubation, BrightGlo luminescence. Here is the method:
as §1, §2
The ability of compounds to inhibit YAP-dependent transcription was assessed in NCI-H2052 Tet-On shYAP_2371 pLenti6 MCAT_Luc cells, while specificity (lack of unspecific inhibition of luciferase expression of activity) was assessed in MKN-45/Ubc-luc cells. […] Following incubation for 24 hours at 37° C., compound-mediated modulation of reporter-gene activity was quantified 5 min after addition of 20 μl BrightGlo (Promega, Cat #E2620), by measuring luminescence intensity on a multi-mode plate-reader (TECAN, Männedorf, Switzerland, Integration time 100 ms). For data analysis, the assay background value determined in wells containing medium, but no cells, was subtracted from all data points. Dose-dependent compound effects were expressed as % of vehicle-treated control (luminescence signal produced by cells receiving DMSO only) and IC50s calculated using a four-parametric fit model.
In general terms: In a reporter assay the amount or activity of a reporter protein is the signal.

Test [4] concerns MKN-45/Ubc-luc cells. Briefly: Reporter gene specificity control (Ubc-luciferase), MKN-45.
Test [5] has as its system MKN-45/Ubc-luc cells. Kind of test: Proliferation assay (resazurin), MKN-45. The test is classed as cell-based. Particulars: 72 hours incubation. Here is the method: As a specificity control, MKN-45 cells were stably transduced with a Ubc-Luc reporter construct, in which constitutive expression of firefly luciferase is driven by the promoter of the ubiquitin C housekeeping gene.
as §2, §3

[6] abbreviates: Homo sapiens, MKN-45, 24 h, read-out: Reporter gene assay MKN-45 IC50 [μM], MKN-45/Ubc-luc cells (YAP deleted, specificity control), 24 hours incubation.

With `NC(=O)c1ccc(OCCO)c(F)c1-c1c(Cl)c(F)cc2c1C[C@@](CN[C@H]1C[C@H](CO)C1)(c1ccccc1)O2` (atropisomer, axis not shown) [Example 64a, 2-((2S,4S)-5-chloro-6-fluoro-2-((((trans)-3-(hydroxymethyl)cyclobutyl)amino)methyl)-2-phenyl-2,3-dihydrobenzofuran-4-yl)-3-fluoro-4-(2-hydroxyethoxy)benzamide], the concentration for 50% growth inhibition (GI50) is 36 nM in test [1] (Homo sapiens, NCI-H2052, 72 h) and above 10000 nM in the test on MKN-45/Ubc-luc cells [5] (Homo sapiens). For the same compound, the IC50 was 2 nM in test [2]; 15 nM in test [3] (Homo sapiens, NCI-H2052, 24 h); above 10 µM in the test with MKN-45/Ubc-luc cells [4] (setting [6]).

Take `NC(=O)c1ccc(OCCO)c(F)c1-c1c(Cl)c(F)cc2c1C[C@@](CN[C@H]1C[C@@H](CO)C1)(c1ccccc1)O2` (atropisomer, axis not shown) [Example 64b, 2-((2S,4S)-5-chloro-6-fluoro-2-((((cis)-3-(hydroxymethyl)cyclobutyl)amino)methyl)-2-phenyl-2,3-dihydrobenzofuran-4-yl)-3-fluoro-4-(2-hydroxyethoxy)benzamide]: the GI50 was 41 nM in test [1] (Homo sapiens, NCI-H2052, 72 h) and above 10000 nM in the test on MKN-45/Ubc-luc cells [5] (Homo sapiens). Moreover, the IC50 in test [2] is 3 nM; in test [3] (Homo sapiens, NCI-H2052, 24 h), 22 nM; with MKN-45/Ubc-luc cells [4] (setting [6]) it was above 10 µM.

For the compound `C[C@]1(O)CC[C@H](NC[C@@]2(c3ccccc3)Cc3c(cc(F)c(Cl)c3-c3c(C(N)=O)ccc(-n4ccnc4)c3F)O2)CC1` (atropisomer, axis not shown) [Example 69a, 2-((2S,4S)-5-chloro-6-fluoro-2-((((trans)-4-hydroxy-4-methylcyclohexyl)amino)methyl)-2-phenyl-2,3-dihydrobenzofuran-4-yl)-3-fluoro-4-(1H-imidazol-1-yl)benzamide], the GI50 in test [1] (Homo sapiens, NCI-H2052, 72 h) was 111 nM; in the test with MKN-45/Ubc-luc cells [5] (Homo sapiens) it was above 10000 nM. Further, the IC50 in test [2] is 5 nM; in test [3] (Homo sapiens, NCI-H2052, 24 h), 80 nM; with MKN-45/Ubc-luc cells [4] (setting [6]), above 10 µM.

Take `C[C@]1(O)CC[C@@H](NC[C@@]2(c3ccccc3)Cc3c(cc(F)c(Cl)c3-c3c(C(N)=O)ccc(-n4ccnc4)c3F)O2)CC1` (atropisomer, axis not shown) [Example 69b, 2-((2S,4S)-5-chloro-6-fluoro-2-((((cis)-4-hydroxy-4-methylcyclohexyl)amino)methyl)-2-phenyl-2,3-dihydrobenzofuran-4-yl)-3-fluoro-4-(1H-imidazol-1-yl)benzamide]: the concentration for 50% growth inhibition (GI50) was found to be 171 nM in test [1] (Homo sapiens, NCI-H2052, 72 h) and 6700 nM with MKN-45/Ubc-luc cells [5] (Homo sapiens). Also, the IC50 amounted to 4 nM in test [2]; 114 nM in test [3] (Homo sapiens, NCI-H2052, 24 h); 7.8 µM with MKN-45/Ubc-luc cells [4] (setting [6]).

`NC(=O)c1ccc(OC(F)F)c(F)c1-c1c(Cl)c(F)cc2c1C[C@@](CN[C@H]1CC[C@H](O)CC1)(c1ccccc1)O2` (atropisomer, axis not shown) [Example 72, 2-((2S,4S)-5-chloro-6-fluoro-2-(((trans-4-hydroxycyclohexyl)amino)methyl)-2-phenyl-2,3-dihydrobenzofuran-4-yl)-4-(difluoromethoxy)-3-fluorobenzamide]: the GI50 was 72 nM in test [1] (Homo sapiens, NCI-H2052, 72 h) and above 10000 nM in the test on MKN-45/Ubc-luc cells [5] (Homo sapiens). In addition, the IC50 in test [2] came out at 2 nM; in test [3] (Homo sapiens, NCI-H2052, 24 h), 39 nM; with MKN-45/Ubc-luc cells [4] (setting [6]), 9.8 µM.

Consider `C[C@@H](O)CNC[C@@]1(c2ccccc2)Cc2c(cc(F)c(Cl)c2-c2c(C(N)=O)ccc(OC(F)F)c2F)O1` (atropisomer, axis not shown) [Example 74, 2-((2S,4S)-5-chloro-6-fluoro-2-((((R)-2-hydroxypropyl)amino)methyl)-2-phenyl-2,3-dihydrobenzofuran-4-yl)-4-(difluoromethoxy)-3-fluorobenzamide], for which the GI50 was 674 nM in test [1] (Homo sapiens, NCI-H2052, 72 h) and above 10000 nM with MKN-45/Ubc-luc cells [5] (Homo sapiens). Besides, the IC50 in test [2] is 33 nM; in test [3] (Homo sapiens, NCI-H2052, 24 h) it was 419 nM; with MKN-45/Ubc-luc cells [4] (setting [6]) it was above 10 µM.

As to `NC(=O)c1ccc(OC(F)F)c(F)c1-c1c(Cl)c(F)cc2c1C[C@@](CN[C@H]1CC[C@@H](O)[C@H](F)C1)(c1ccccc1)O2` (atropisomer, axis not shown) [Example 81a, 2-((2S,4S)-5-chloro-6-fluoro-2-((((1S,3R,4R)-3-fluoro-4-hydroxycyclohexyl)amino)methyl)-2-phenyl-2,3-dihydrobenzofuran-4-yl)-4-(difluoromethoxy)-3-fluorobenzamide], the concentration for 50% growth inhibition (GI50) in test [1] (Homo sapiens, NCI-H2052, 72 h) was 467 nM; in the test on MKN-45/Ubc-luc cells [5] (Homo sapiens) it was above 10000 nM. Also, the IC50 in test [2] was 33 nM; in test [3] (Homo sapiens, NCI-H2052, 24 h) it was 231 nM; in the test on MKN-45/Ubc-luc cells [4] (setting [6]) it was above 10 µM.

As for `NC(=O)c1ccc(OC(F)F)c(F)c1-c1c(Cl)c(F)cc2c1C[C@@](CN[C@H]1CC[C@@H](O)[C@H](F)C1)(c1ccccc1)O2` (atropisomer, axis not shown) [Example 81b, 2-((2S,4S)-5-chloro-6-fluoro-2-((((1R,3S,4S)-3-fluoro-4-hydroxycyclohexyl)amino)methyl)-2-phenyl-2,3-dihydrobenzofuran-4-yl)-4-(difluoromethoxy)-3-fluorobenzamide], the GI50 in test [1] was 571 nM; in the test with MKN-45/Ubc-luc cells [5], above 10000 nM. Further, the IC50 is 32 nM in test [2]; 316 nM in test [3]; above 10 µM with MKN-45/Ubc-luc cells [4] (read-out: Reporter gene assay MKN-45 IC50, MKN-45/Ubc-luc cells (YAP deleted, specificity control), 24 hours incubation).

Take `NC(=O)c1ccc(OC(F)F)c(F)c1-c1c(Cl)c(F)cc2c1C[C@@](CN[C@@H]1CCC[C@H](O)C1)(c1ccccc1)O2` (atropisomer, axis not shown) [Example 83, 2-((2S,4S)-5-chloro-6-fluoro-2-((((1R,3S)-3-hydroxycyclohexyl)amino)methyl)-2-phenyl-2,3-dihydrobenzofuran-4-yl)-4-(difluoromethoxy)-3-fluorobenzamide]: the GI50 in test [1] (Homo sapiens, NCI-H2052, 72 h) is 503 nM; with MKN-45/Ubc-luc cells [5] (Homo sapiens), above 10000 nM. Moreover, the IC50 in test [2] was 24 nM; in test [3] (Homo sapiens, NCI-H2052, 24 h), 394 nM; in the test on MKN-45/Ubc-luc cells [4] (setting [6]) it was above 10 µM.

Take `COc1ccc(C(N)=O)c(-c2c(Cl)ccc3c2[C@H](O)[C@@](CN)(c2ccccc2)O3)c1F` (atropisomer, axis not shown) [Example 86, 2-((2S,3S,4S)-2-(Aminomethyl)-5-chloro-3-hydroxy-2-phenyl-2,3-dihydrobenzofuran-4-yl)-3-fluoro-4-methoxybenzamide]: the GI50 is 129 nM in test [1] (Homo sapiens, NCI-H2052, 72 h) and above 10000 nM in the test with MKN-45/Ubc-luc cells [5] (Homo sapiens). Besides, the IC50 in test [2] is 3 nM; in test [3] (Homo sapiens, NCI-H2052, 24 h) it was 119 nM; in the test on MKN-45/Ubc-luc cells [4] (setting [6]) it was above 10 µM.

Turning to `COCCOc1ccc(C(N)=O)c(-c2c(Cl)ccc3c2[C@H](O)[C@@](CN)(c2ccccc2)O3)c1F` (atropisomer, axis not shown) [Example 88, 2-((2S,3S,4S)-2-(aminomethyl)-5-chloro-3-hydroxy-2-phenyl-2,3-dihydrobenzofuran-4-yl)-3-fluoro-4-(2-methoxyethoxy)benzamide], the 50% growth inhibitory concentration (GI50) in test [1] (Homo sapiens, NCI-H2052, 72 h) was 242 nM; with MKN-45/Ubc-luc cells [5] (Homo sapiens), above 10000 nM. For the same compound, the IC50 in test [2] was 7 nM; in test [3] (Homo sapiens, NCI-H2052, 24 h), 91 nM; with MKN-45/Ubc-luc cells [4] (setting [6]), above 10 µM.

As for `COc1ccc(C(N)=O)c(-c2c(Cl)ccc3c2[C@H](O)[C@@](CN)(c2ccccn2)O3)c1F` (atropisomer, axis not shown) [Example 89, 2-((2R,3S,4S)-2-(Aminomethyl)-5-chloro-3-hydroxy-2-(pyridin-2-yl)-2,3-dihydrobenzofuran-4-yl)-3-fluoro-4-methoxybenzamide], the GI50 was 1600 nM in test [1] (Homo sapiens, NCI-H2052, 72 h) and above 10000 nM in the test with MKN-45/Ubc-luc cells [5] (Homo sapiens). For the same compound, the IC50 in test [2] was 19 nM; in test [3] (Homo sapiens, NCI-H2052, 24 h), 596 nM; in the test on MKN-45/Ubc-luc cells [4] (setting [6]), above 10 µM.

What is called GI50 is the concentration giving 50% growth inhibition. Higher therefore signals less potent growth inhibition.
